Laboratory results reported in patent US11230538B2, “Herbicides” (SYNGENTA PARTICIPATIONS AG, priority 2016, dated 2022).

Legend:
Format in all cases: in vivo
[1] = tested on: Alopecurus myosuroides (ALOMY); assay: B1 Pre-emergence herbicidal activity; parameters: key: 5=total damage to plant; 0=no damage to plant; settings: pre-emergence application, rate 1000 g/ha, evaluated after 13 days
How it was run: (§1)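 Sow in soil → 1 d glasshouse (24/16 °C, 14 h light, 65% RH) → spray pre-emergence (acetone/water 50:50, 0.5% Tween 20) → grow 13 d, water twice daily → score 0–5 (5 = total damage).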

Avena fatua (AVEFA) [2] = assay: B1 Pre-emergence herbicidal activity; parameters: key: 5=total damage to plant; 0=no damage to plant; settings: pre-emergence application, rate 1000 g/ha, evaluated after 13 days
How it was run: as §1

[3] = tested on: Triticum aestivium (TRZAW); assay: B1 Pre-emergence herbicidal activity; parameters: key: 5=total damage to plant; 0=no damage to plant; settings: pre-emergence application, rate 1000 g/ha, evaluated after 13 days
How it was run: as §1

[4] = tested on: Echinochloa crus-galli (ECHCG); assay: B1 Pre-emergence herbicidal activity; parameters: key to Pre-emergence herbicidal activity, ECHCG (damage score 0-5): 5=total damage to plant; 0=no damage to plant; settings: pre-emergence application, rate 1000 g/ha, evaluated after 13 days
How it was run: as §1

Lolium perenne (LOLPE) [5] = assay: B1 Pre-emergence herbicidal activity; parameters: key to Pre-emergence herbicidal activity, LOLPE (damage score 0-5): 5=total damage to plant; 0=no damage to plant; settings: pre-emergence application, rate 1000 g/ha, evaluated after 13 days
How it was run: as §1

Setaria fabenr (SETFA) = assay: B1 Pre-emergence herbicidal activity; parameters: key to Pre-emergence herbicidal activity, SETFA (damage score 0-5): 5=total damage to plant; 0=no damage to plant; settings: pre-emergence application, rate 1000 g/ha, evaluated after 13 days
How it was run: as §1

Avena fatua (AVEFA) [6] = assay: B2 Post-emergence herbicidal activity; settings: post-emergence application, rate 1000 g/ha, evaluated after 13 days
Protocol: (§2) Seeds of a variety of test species were sown in standard soil in pots: Triticum aestivium (TRZAW), Avena fatua (AVEFA), Alopecurus myosuroides (ALOMY), Echinochloa crus-galli (ECHCG), Lolium perenne (LOLPE), Zea Mays (ZEAMX), Abutilon theophrasti (ABUTH), Amaranthus retroflexus (AMARE) and Setaria fabenri (SETFA). After 8 days cultivation (post-emergence) under controlled conditions in a glasshouse (at 24/16° C., day/night; 14 hours light; 65% humidity), the plants were sprayed with an aqueous spray solution derived from the formulation of the technical active ingredient in acetone I water (50:50) solution containing 0.5% Tween 20 (polyoxyethelyene sorbitan monolaurate, CAS RN 9005-64-5). The test plants were then grown in a glasshouse under controlled conditions (at 24/16° C., day/night; 14 hours light; 65% humidity) and watered twice daily. After 13 days, the test was evaluated (5=total damage to plant; 0=no damage to plant).

[7] = tested on: Echinochloa crus-galli (ECHCG); assay: B2 Post-emergence herbicidal activity; parameters: key to Post-emergence herbicidal activity, ECHCG (damage score 0-5): 5=total damage to plant; 0=no damage to plant; settings: post-emergence application, rate 1000 g/ha, evaluated after 13 days
How it was run: (§3)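 Test seeds are sown in standard soil and raised for 8 days under controlled glasshouse conditions (24/16 °C, 14 h light, 65% humidity). Foliage is then sprayed with compound formulated in 50:50 acetone/water plus 0.5% Tween 20, and plants are rated 0–5 for damage after 13 days.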

Lolium perenne (LOLPE) [8] = assay: B2 Post-emergence herbicidal activity; settings: post-emergence application, rate 1000 g/ha, evaluated after 13 days
Protocol: as §2

[9] = tested on: Alopecurus myosuroides (ALOMY); assay: B2 Post-emergence herbicidal activity; parameters: key: 5=total damage to plant; 0=no damage to plant; settings: post-emergence application, rate 1000 g/ha, evaluated after 13 days
How it was run: as §3

Setaria fabenri (SETFA) = assay: B2 Post-emergence herbicidal activity; parameters: key: 5=total damage to plant; 0=no damage to plant; settings: post-emergence application, rate 1000 g/ha, evaluated after 13 days
How it was run: as §3

[10] = tested on: Triticum aestivium (TRZAW); assay: B2 Post-emergence herbicidal activity; parameters: key: 5=total damage to plant; 0=no damage to plant; settings: post-emergence application, rate 1000 g/ha, evaluated after 13 days
How it was run: as §3

Row | Structure (SMILES) | Pre-emergence herbicidal activity, ALOMY (damage score 0-5) [1] | Pre-emergence herbicidal activity, AVEFA (damage score 0-5) (Avena fatua (AVEFA) [2]) | Pre-emergence herbicidal activity, TRAZW (damage score 0-5) [3] | Pre-emergence herbicidal activity, ECHCG (damage score 0-5) [4] | Pre-emergence herbicidal activity, LOLPE (damage score 0-5) (Lolium perenne (LOLPE) [5]) | Pre-emergence herbicidal activity, SETFA (damage score 0-5) (Setaria fabenr (SETFA)) | Post-emergence herbicidal activity, AVEFA (damage score 0-5) (Avena fatua (AVEFA) [6]) | Post-emergence herbicidal activity, ECHCG (damage score 0-5) [7] | Post-emergence herbicidal activity, LOLPE (damage score 0-5) (Lolium perenne (LOLPE) [8]) | Post-emergence herbicidal activity, ALOMY (damage score 0-5) [9] | Post-emergence herbicidal activity, SETFA (damage score 0-5) (Setaria fabenri (SETFA)) | Post-emergence herbicidal activity, TRAZW (damage score 0-5) [10]
1 | O=C(Nc1ccc(-c2cncc(F)c2)nc1C(F)(F)F)C(Cl)Cl [Compound C26] | 0 | 2 | 0 | 5 | 1 | 5 | 4 | 5 | 4 | 0 | 5 | 1
2 | COCC(=O)Nc1ccc(-c2cncc(F)c2)nc1C(F)(F)F [Compound C27] | 0 | 3 | 0 | 5 | 1 | 5 | 4 | 5 | 3 | 1 | 5 | 1
3 | O=C(COc1ccccc1)Nc1ccc(-c2cncc(F)c2)nc1C(F)(F)F [Compound C28] | 0 | 3 | 0 | 4 | 1 | 4 | 4 | 5 | 3 | 0 | 5 | 0
4 | O=C(Nc1ccc(-c2cncc(F)c2)nc1C(F)(F)F)C(Cl)(Cl)Cl [Compound C29] | 0 | 4 | 0 | 5 | 1 | 5 | 4 | 5 | 3 | 0 | 5 | 0
5 | Cc1ccc(C(=O)Nc2ccc(-c3cncc(F)c3)nc2C(F)(F)F)cc1 [Compound C30] | 2 | 3 | 0 | 5 | 1 | 5 | 4 | 5 | 3 | 0 | 5 | 0
6 | O=C(Nc1ccc(-c2cncc(F)c2)nc1C(F)(F)F)c1c(F)cccc1F [Compound C31] | 1 | 2 | 0 | 4 | 0 | 5 | 3 | 5 | 3 | 0 | 5 | 0
